Assay results taken from patent US20100273814A1, “((PHENYL)IMIDAZOLYL)METHYLHETEROARYL COMPOUNDS” (priority 2007, published 2010).

target: T1, alpha2A receptor (Homo sapiens, UniProt P08913); assay: Receptor Selection and Amplification Technology (RSAT) assay, alpha2A; type: cell-based; conditions: RSAT, transfected NIH-3T3 cells; value outside brackets; read-out: Alpha 2A EC50 (potency)
T1 construct: expressed in transfected cells; host or cells: NIH-3T3 cells
T1 sequence (P08913 1-465): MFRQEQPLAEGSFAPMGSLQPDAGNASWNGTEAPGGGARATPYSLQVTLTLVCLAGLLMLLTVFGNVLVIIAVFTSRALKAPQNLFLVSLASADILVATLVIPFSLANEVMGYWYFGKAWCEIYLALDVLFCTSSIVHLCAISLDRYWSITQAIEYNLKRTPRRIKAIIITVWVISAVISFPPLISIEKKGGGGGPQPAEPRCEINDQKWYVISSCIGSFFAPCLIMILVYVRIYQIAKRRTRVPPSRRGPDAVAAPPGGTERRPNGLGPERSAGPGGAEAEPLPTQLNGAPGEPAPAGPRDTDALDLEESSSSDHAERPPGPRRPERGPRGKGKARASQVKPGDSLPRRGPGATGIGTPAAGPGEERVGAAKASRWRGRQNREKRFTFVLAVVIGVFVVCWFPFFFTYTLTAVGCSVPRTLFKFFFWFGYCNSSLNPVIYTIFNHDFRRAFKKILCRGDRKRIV
Experimental: (§1) Receptor Selection and Amplification Technology (RSAT) Assay
(§2) The RSAT assay measures a receptor-mediated loss of contact inhibition that results in selective proliferation of receptor-containing cells in a mixed population of confluent cells. The increase in cell number is assessed with an appropriate transfected marker gene such as β-galactosidase, the activity of which can be easily measured in a 96-well format. Receptors that activate the G protein, Gq, elicit this response. Alpha2 receptors, which normally couple to Gi, activate the RSAT response when coexpressed with a hybrid Gq protein that has a Gi receptor recognition domain, called Gq/i5.
(§3) NIH-3T3 cells are plated at a density of 2×10^6 cells in 15 cm dishes and maintained in Dulbecco's modified Eagle's medium supplemented with 10% calf serum. One day later, cells are cotransfected by calcium phosphate precipitation with mammalian expression plasmids encoding p-SV-β-galactosidase (5-10 μg), receptor (1-2 μg) and G protein (1-2 μg). 40 μg salmon sperm DNA may also be included in the transfection mixture. Fresh media is added on the following day and 1-2 days later, cells are harvested and frozen in 50 assay aliquots. Cells are thawed and […] added to 100 aliquots of various concentrations of drugs in triplicate in 96-well dishes. Incubations continue 72-96 hr at 37° C. After washing with phosphate-buffered saline, β-galactosidase enzyme activity is determined by adding 200 μl of the chromogenic substrate (consisting of 3.5 mM o-nitrophenyl-β-D-galactopyranoside and 0.5% nonidet P-40 in phosphate buffered saline), incubating overnight at 30° C. and measuring optical density at 420 nm. The absorbance is a measure of enzyme activity, which depends on cell number and reflects a receptor-mediated cell proliferation. The efficacy or intrinsic activity is calculated as a ratio of the maximal effect of the drug to the maximal effect of a standard full agonist for each receptor subtype. Brimonidine, also called UK14304, the chemical structure of which is shown below, is used as the standard agonist for the alpha2A, alpha2B and alpha2C receptors. The EC50 is the concentration at which the drug effect is half of its maximal effect.
(§4) EC50 values are nanomolar. ND stands for “not determinable” at concentrations less than 10 micromolar. IA stands for “intrinsic activity.”

Compound	EC50
Fc1c(Cl)cccc1C(c1ccncc1)c1cnc[nH]1 (stereo not shown) [4-((3-chloro-2-fluorophenyl)(1H-imidazol-5-yl)methyl)pyridine]	> 10000 nM
Fc1cccc(C(c2ccncc2)c2c[nH]cn2)c1 (stereo not shown) [4-((3-fluorophenyl)(1H-imidazol-5-yl)methyl)pyridine]	> 10000 nM
Fc1c(Cl)cccc1C(c1ccccn1)c1cnc[nH]1 (stereo not shown) [2-((3-chloro-2-fluorophenyl)(1H-imidazol-5-yl)methyl)pyridine]	> 10000 nM
Cc1cccc(C(c2ccccn2)c2c[nH]cn2)c1C (stereo not shown) [2-((2,3-dimethylphenyl)(1H-imidazol-4-yl)methyl)pyridine]	1930 nM
Cc1c(F)cccc1C(c1ccccn1)c1c[nH]cn1 (stereo not shown) [2-((3-fluoro-2-methylphenyl)(1H-imidazol-5-yl)methyl)pyridine]	> 10000 nM
c1ccc(C(c2cccnc2)c2c[nH]cn2)cc1 (stereo not shown) [3-((phenyl)(1H-imidazol-5-yl)methyl)pyridine]	> 10000 nM
Fc1cccc(C(c2cccnc2)c2c[nH]cn2)c1F (stereo not shown) [3-((2,3-difluorophenyl)(1H-imidazol-5-yl)methyl)pyridine]	> 10000 nM

same assay, conditions: RSAT; ratio of maximal effect to that of standard full agonist brimonidine (UK14304); value in brackets

Compound	Alpha 2A intrinsic activity (efficacy)
CC(C)c1ccc(C(c2c[nH]cn2)c2cccc(F)c2Cl)s1 (stereo not shown)	0.06
Fc1c(Cl)cccc1C(c1ccncc1)c1cnc[nH]1 (stereo not shown) [4-((3-chloro-2-fluorophenyl)(1H-imidazol-5-yl)methyl)pyridine]	0.09
Fc1cccc(C(c2ccncc2)c2c[nH]cn2)c1 (stereo not shown) [4-((3-fluorophenyl)(1H-imidazol-5-yl)methyl)pyridine]	0.04
Fc1c(Cl)cccc1C(c1ccccn1)c1cnc[nH]1 (stereo not shown) [2-((3-chloro-2-fluorophenyl)(1H-imidazol-5-yl)methyl)pyridine]	0.07
Cc1cccc(C(c2ccccn2)c2c[nH]cn2)c1C (stereo not shown) [2-((2,3-dimethylphenyl)(1H-imidazol-4-yl)methyl)pyridine]	0.39
Cc1c(F)cccc1C(c1ccccn1)c1c[nH]cn1 (stereo not shown) [2-((3-fluoro-2-methylphenyl)(1H-imidazol-5-yl)methyl)pyridine]	0.04
c1ccc(C(c2cccnc2)c2c[nH]cn2)cc1 (stereo not shown) [3-((phenyl)(1H-imidazol-5-yl)methyl)pyridine]	0.11
Fc1cccc(C(c2cccnc2)c2c[nH]cn2)c1F (stereo not shown) [3-((2,3-difluorophenyl)(1H-imidazol-5-yl)methyl)pyridine]	0.05

target: T2, alpha2B receptor (Homo sapiens, UniProt P18089); assay: Receptor Selection and Amplification Technology (RSAT) assay, alpha2B; type: cell-based; conditions: RSAT, transfected NIH-3T3 cells; value outside brackets; read-out: Alpha 2B EC50 (potency)
T2 construct: expressed in transfected cells; host or cells: NIH-3T3 cells
T2 sequence (P18089 1-450): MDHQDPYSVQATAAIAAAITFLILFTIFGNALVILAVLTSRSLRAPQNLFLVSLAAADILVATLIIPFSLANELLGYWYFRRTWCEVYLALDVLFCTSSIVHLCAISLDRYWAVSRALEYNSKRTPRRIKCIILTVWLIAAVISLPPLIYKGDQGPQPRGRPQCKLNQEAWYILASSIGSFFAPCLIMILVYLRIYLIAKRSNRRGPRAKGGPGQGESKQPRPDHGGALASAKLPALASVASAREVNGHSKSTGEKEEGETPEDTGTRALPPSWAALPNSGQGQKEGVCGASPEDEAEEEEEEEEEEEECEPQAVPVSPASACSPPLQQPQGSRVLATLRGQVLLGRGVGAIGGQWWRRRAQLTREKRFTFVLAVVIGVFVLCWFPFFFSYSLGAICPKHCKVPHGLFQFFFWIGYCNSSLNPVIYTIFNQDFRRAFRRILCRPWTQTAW
Experimental: as §1, §2, §3, §4

Compound	EC50
CC(C)c1ccc(C(c2c[nH]cn2)c2cccc(F)c2Cl)s1 (stereo not shown)	75 nM
Fc1c(Cl)cccc1C(c1ccncc1)c1cnc[nH]1 (stereo not shown) [4-((3-chloro-2-fluorophenyl)(1H-imidazol-5-yl)methyl)pyridine]	40 nM
Fc1cccc(C(c2ccncc2)c2c[nH]cn2)c1 (stereo not shown) [4-((3-fluorophenyl)(1H-imidazol-5-yl)methyl)pyridine]	562 nM
Fc1c(Cl)cccc1C(c1ccccn1)c1cnc[nH]1 (stereo not shown) [2-((3-chloro-2-fluorophenyl)(1H-imidazol-5-yl)methyl)pyridine]	32 nM
Cc1cccc(C(c2ccccn2)c2c[nH]cn2)c1C (stereo not shown) [2-((2,3-dimethylphenyl)(1H-imidazol-4-yl)methyl)pyridine]	0.92 nM
Cc1c(F)cccc1C(c1ccccn1)c1c[nH]cn1 (stereo not shown) [2-((3-fluoro-2-methylphenyl)(1H-imidazol-5-yl)methyl)pyridine]	36 nM
c1ccc(C(c2cccnc2)c2c[nH]cn2)cc1 (stereo not shown) [3-((phenyl)(1H-imidazol-5-yl)methyl)pyridine]	190 nM
Fc1cccc(C(c2cccnc2)c2c[nH]cn2)c1F (stereo not shown) [3-((2,3-difluorophenyl)(1H-imidazol-5-yl)methyl)pyridine]	68 nM

same assay, conditions: RSAT; ratio of maximal effect to that of standard full agonist brimonidine (UK14304); value in brackets

Compound	Alpha 2B intrinsic activity (efficacy)
CC(C)c1ccc(C(c2c[nH]cn2)c2cccc(F)c2Cl)s1 (stereo not shown)	0.40
Fc1c(Cl)cccc1C(c1ccncc1)c1cnc[nH]1 (stereo not shown) [4-((3-chloro-2-fluorophenyl)(1H-imidazol-5-yl)methyl)pyridine]	1.02
Fc1cccc(C(c2ccncc2)c2c[nH]cn2)c1 (stereo not shown) [4-((3-fluorophenyl)(1H-imidazol-5-yl)methyl)pyridine]	0.93
Fc1c(Cl)cccc1C(c1ccccn1)c1cnc[nH]1 (stereo not shown) [2-((3-chloro-2-fluorophenyl)(1H-imidazol-5-yl)methyl)pyridine]	1.21
Cc1cccc(C(c2ccccn2)c2c[nH]cn2)c1C (stereo not shown) [2-((2,3-dimethylphenyl)(1H-imidazol-4-yl)methyl)pyridine]	1.22
Cc1c(F)cccc1C(c1ccccn1)c1c[nH]cn1 (stereo not shown) [2-((3-fluoro-2-methylphenyl)(1H-imidazol-5-yl)methyl)pyridine]	1.07
c1ccc(C(c2cccnc2)c2c[nH]cn2)cc1 (stereo not shown) [3-((phenyl)(1H-imidazol-5-yl)methyl)pyridine]	0.72
Fc1cccc(C(c2cccnc2)c2c[nH]cn2)c1F (stereo not shown) [3-((2,3-difluorophenyl)(1H-imidazol-5-yl)methyl)pyridine]	0.93

target: T3, alpha2C receptor (Homo sapiens, UniProt P18825); assay: Receptor Selection and Amplification Technology (RSAT) assay, alpha2C; type: cell-based; conditions: RSAT, transfected NIH-3T3 cells; value outside brackets; read-out: Alpha 2C EC50 (potency)
T3 construct: expressed in transfected cells; host or cells: NIH-3T3 cells
T3 sequence (P18825 1-462): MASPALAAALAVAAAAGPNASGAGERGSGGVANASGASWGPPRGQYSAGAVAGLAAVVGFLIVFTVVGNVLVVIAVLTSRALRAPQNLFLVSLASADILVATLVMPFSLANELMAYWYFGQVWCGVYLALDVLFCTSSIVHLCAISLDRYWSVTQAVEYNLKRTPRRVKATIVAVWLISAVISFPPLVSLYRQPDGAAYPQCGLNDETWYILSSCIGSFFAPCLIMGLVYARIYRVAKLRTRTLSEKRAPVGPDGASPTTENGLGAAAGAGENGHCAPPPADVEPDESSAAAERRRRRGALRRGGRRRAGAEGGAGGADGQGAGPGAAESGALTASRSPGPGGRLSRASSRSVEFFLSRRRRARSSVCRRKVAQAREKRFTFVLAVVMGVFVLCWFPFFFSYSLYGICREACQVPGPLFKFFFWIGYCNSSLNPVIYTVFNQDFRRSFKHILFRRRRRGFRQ
Experimental: as §1, §2, §3, §4

Compound	EC50
Fc1c(Cl)cccc1C(c1ccncc1)c1cnc[nH]1 (stereo not shown) [4-((3-chloro-2-fluorophenyl)(1H-imidazol-5-yl)methyl)pyridine]	340 nM
Fc1cccc(C(c2ccncc2)c2c[nH]cn2)c1 (stereo not shown) [4-((3-fluorophenyl)(1H-imidazol-5-yl)methyl)pyridine]	> 10000 nM
Fc1c(Cl)cccc1C(c1ccccn1)c1cnc[nH]1 (stereo not shown) [2-((3-chloro-2-fluorophenyl)(1H-imidazol-5-yl)methyl)pyridine]	177 nM
Cc1cccc(C(c2ccccn2)c2c[nH]cn2)c1C (stereo not shown) [2-((2,3-dimethylphenyl)(1H-imidazol-4-yl)methyl)pyridine]	356 nM
Cc1c(F)cccc1C(c1ccccn1)c1c[nH]cn1 (stereo not shown) [2-((3-fluoro-2-methylphenyl)(1H-imidazol-5-yl)methyl)pyridine]	440 nM
c1ccc(C(c2cccnc2)c2c[nH]cn2)cc1 (stereo not shown) [3-((phenyl)(1H-imidazol-5-yl)methyl)pyridine]	> 10000 nM
Fc1cccc(C(c2cccnc2)c2c[nH]cn2)c1F (stereo not shown) [3-((2,3-difluorophenyl)(1H-imidazol-5-yl)methyl)pyridine]	656 nM

same assay, conditions: RSAT; ratio of maximal effect to that of standard full agonist brimonidine (UK14304); value in brackets

Compound	Alpha 2C intrinsic activity (efficacy)
CC(C)c1ccc(C(c2c[nH]cn2)c2cccc(F)c2Cl)s1 (stereo not shown)	0.23
Fc1c(Cl)cccc1C(c1ccncc1)c1cnc[nH]1 (stereo not shown) [4-((3-chloro-2-fluorophenyl)(1H-imidazol-5-yl)methyl)pyridine]	0.60
Fc1cccc(C(c2ccncc2)c2c[nH]cn2)c1 (stereo not shown) [4-((3-fluorophenyl)(1H-imidazol-5-yl)methyl)pyridine]	0.23
Fc1c(Cl)cccc1C(c1ccccn1)c1cnc[nH]1 (stereo not shown) [2-((3-chloro-2-fluorophenyl)(1H-imidazol-5-yl)methyl)pyridine]	0.49
Cc1cccc(C(c2ccccn2)c2c[nH]cn2)c1C (stereo not shown) [2-((2,3-dimethylphenyl)(1H-imidazol-4-yl)methyl)pyridine]	0.64
Cc1c(F)cccc1C(c1ccccn1)c1c[nH]cn1 (stereo not shown) [2-((3-fluoro-2-methylphenyl)(1H-imidazol-5-yl)methyl)pyridine]	0.38
c1ccc(C(c2cccnc2)c2c[nH]cn2)cc1 (stereo not shown) [3-((phenyl)(1H-imidazol-5-yl)methyl)pyridine]	0.16
Fc1cccc(C(c2cccnc2)c2c[nH]cn2)c1F (stereo not shown) [3-((2,3-difluorophenyl)(1H-imidazol-5-yl)methyl)pyridine]	0.85
